These are literature values, as cited in patent US6631329B1, “Use of the crystal structure of Staphylococcus aureus isoleucyl-tRNA synthetase in antibiotic design” (Yale University, priority 1999, dated 2003).

The test system of series [1] is Gram-negative bacterial IRS. The note with it: many Gram-negative bacterial IRS.
Series [2] deals with T1, human isoleucyl-tRNA synthetase (Homo sapiens, UniProt P41252).
T1 sequence (P41252 1-1262): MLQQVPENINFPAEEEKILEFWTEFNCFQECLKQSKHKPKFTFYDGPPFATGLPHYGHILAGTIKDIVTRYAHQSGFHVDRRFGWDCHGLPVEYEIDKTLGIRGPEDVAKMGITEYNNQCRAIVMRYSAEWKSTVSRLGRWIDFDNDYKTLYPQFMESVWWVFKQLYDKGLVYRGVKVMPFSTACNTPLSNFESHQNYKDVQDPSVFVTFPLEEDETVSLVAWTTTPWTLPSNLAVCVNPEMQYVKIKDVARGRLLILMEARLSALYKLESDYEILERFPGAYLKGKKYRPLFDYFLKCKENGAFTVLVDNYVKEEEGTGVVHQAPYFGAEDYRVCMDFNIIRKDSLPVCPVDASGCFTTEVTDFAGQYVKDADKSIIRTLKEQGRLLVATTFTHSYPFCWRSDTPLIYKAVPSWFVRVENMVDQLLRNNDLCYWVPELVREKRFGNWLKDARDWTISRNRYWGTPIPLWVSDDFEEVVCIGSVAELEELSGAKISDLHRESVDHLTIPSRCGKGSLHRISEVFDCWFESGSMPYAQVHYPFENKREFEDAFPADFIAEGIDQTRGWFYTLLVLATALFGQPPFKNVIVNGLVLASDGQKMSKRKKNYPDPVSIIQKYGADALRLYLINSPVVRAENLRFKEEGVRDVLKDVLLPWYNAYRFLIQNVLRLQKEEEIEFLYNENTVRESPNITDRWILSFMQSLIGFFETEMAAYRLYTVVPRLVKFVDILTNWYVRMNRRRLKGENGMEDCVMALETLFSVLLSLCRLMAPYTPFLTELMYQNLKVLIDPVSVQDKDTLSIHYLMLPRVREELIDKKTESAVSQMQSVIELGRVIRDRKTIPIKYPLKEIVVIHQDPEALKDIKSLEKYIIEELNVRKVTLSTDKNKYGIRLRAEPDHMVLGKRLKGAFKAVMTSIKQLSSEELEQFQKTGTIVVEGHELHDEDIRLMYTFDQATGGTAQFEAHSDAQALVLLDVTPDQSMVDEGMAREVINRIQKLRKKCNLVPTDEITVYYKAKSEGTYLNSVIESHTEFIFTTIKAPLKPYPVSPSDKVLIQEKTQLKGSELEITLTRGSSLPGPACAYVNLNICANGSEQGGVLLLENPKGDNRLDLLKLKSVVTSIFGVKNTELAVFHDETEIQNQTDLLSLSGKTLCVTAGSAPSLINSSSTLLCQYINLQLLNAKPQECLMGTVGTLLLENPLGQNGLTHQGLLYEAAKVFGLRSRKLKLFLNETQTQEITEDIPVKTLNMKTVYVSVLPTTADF

Series [3] has as its system Pseudomonic fluoscenes (Psefl) enzyme. The note with it: SA IRS vs Pseudomonic fluoscenes enzyme.
The target in series [4] is T2, isoleucyl-tRNA synthetase (IRS) (Staphylococcus aureus, UniProt P41972).
T2 sequence (P41972 1-917): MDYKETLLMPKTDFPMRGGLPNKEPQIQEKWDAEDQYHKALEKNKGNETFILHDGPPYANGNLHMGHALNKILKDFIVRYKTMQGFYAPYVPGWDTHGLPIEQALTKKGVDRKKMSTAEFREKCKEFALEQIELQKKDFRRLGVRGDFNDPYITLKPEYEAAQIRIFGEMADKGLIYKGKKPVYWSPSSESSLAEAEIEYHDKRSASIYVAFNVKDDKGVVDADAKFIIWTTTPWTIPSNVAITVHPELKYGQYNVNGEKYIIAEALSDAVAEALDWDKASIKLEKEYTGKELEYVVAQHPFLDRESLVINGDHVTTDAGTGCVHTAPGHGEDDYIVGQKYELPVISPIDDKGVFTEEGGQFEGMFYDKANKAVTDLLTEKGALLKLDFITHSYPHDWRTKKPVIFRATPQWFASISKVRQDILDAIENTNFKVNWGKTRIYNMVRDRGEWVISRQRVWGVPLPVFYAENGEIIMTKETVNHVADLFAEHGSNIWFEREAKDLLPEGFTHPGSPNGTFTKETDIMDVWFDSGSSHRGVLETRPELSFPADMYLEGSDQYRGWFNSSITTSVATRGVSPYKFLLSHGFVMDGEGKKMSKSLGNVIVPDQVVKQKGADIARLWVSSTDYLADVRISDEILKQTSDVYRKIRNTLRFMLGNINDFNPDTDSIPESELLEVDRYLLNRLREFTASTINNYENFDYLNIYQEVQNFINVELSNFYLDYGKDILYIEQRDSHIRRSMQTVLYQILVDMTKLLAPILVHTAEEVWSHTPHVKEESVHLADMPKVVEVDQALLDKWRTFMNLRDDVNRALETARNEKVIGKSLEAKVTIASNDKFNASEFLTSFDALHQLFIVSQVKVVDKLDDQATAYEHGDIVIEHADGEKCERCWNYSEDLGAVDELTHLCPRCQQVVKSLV
The note with it: with respect to isoleucine.

Series [5] concerns MRSA.
The test system of series [6] is MRSA. The note with it: topical use.
The test system of series [7] is MRSA. The note with it: in vivo.
For series [8], the target named is MURSA isoleucyl-tRNA synthetase (Staphylococcus aureus, UniProt P41368).
MURSA isoleucyl-tRNA synthetase, sequence (P41368 whole entry): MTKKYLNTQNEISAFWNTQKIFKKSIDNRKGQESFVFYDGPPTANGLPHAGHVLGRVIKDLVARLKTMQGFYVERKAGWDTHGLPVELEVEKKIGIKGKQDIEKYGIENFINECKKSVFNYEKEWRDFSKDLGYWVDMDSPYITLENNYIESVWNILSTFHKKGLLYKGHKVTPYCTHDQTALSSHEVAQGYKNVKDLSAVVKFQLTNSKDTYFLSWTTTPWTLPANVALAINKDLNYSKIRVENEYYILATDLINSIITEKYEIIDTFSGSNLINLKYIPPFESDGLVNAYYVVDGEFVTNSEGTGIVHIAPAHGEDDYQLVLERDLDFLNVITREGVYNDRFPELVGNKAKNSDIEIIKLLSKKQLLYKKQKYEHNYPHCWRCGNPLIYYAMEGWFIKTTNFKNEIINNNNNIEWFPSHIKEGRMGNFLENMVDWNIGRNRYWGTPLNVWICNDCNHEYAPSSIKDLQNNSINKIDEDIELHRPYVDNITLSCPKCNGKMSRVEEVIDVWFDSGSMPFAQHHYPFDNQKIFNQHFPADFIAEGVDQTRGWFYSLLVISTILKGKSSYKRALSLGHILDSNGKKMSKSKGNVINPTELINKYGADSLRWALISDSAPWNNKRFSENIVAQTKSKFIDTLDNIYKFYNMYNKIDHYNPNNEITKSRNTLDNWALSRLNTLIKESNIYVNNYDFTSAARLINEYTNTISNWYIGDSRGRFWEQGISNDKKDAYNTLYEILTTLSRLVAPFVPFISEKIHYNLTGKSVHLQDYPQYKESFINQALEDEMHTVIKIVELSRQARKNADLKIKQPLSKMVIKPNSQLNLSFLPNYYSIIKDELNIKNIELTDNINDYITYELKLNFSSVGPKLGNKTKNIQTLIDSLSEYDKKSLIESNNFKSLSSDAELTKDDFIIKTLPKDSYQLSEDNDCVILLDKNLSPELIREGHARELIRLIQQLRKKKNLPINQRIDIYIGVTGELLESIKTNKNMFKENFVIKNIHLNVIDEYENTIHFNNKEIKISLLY

In the case of `C/C(=C\C(=O)OCCCCCCCCC(=O)O)C[C@@H]1OC[C@H](C[C@@H]2O[C@H]2[C@@H](C)[C@H](C)O)[C@@H](O)[C@H]1O` [Mupirocin, mupirocin], the “concentration at which mupirocin inhibits bacterial IRS” value in [1] is listed as “nM concentrations”. Also, the “sensitivity of human isoleucyl-tRNA synthetase to the antibiotic” value in series [2] is “resistant”. Moreover, the “concentration for binding the human enzyme relative to bacterial IRS” value in series [2] (higher than for bacterial IRS) was 3 to 4 orders of magnitude. The “difference in inhibition between SA IRS and Psefl enzyme” value in [3] is recorded as 10^6. In addition, in series [4], the “mode of inhibition of IRS” value is reported as “competitive inhibitor for isoleucine”. In the series with MRSA [5], the “effectiveness against MRSA” value is “highly effective”. The “eradication of nasal carriage of MRSA” value with MRSA [6] is “very successfully eradicated”. In addition, in the series on MRSA [6] (after failure of intervenous vancomycin therapy), the “eradication of MRSA in skin and virginal infections” value was “eradicated”. For the same molecule, in the series with MRSA [7], the “effectiveness against bacteremia caused by MRSA” value was “not very effective”. The “sensitivity of MURSA isoleucyl-tRNA synthetase to the antibiotic” value in series [8] is “resistant”. In addition, where the note is “metabolic conversion from pseudomonic acid to monic acid”, the half-life in vivo result is given as “short”.

`C/C(=C\C(=O)O)C[C@@H]1OC[C@H](C[C@@H]2O[C@H]2[C@@H](C)[C@H](C)O)[C@@H](O)[C@H]1O` [monic acid]: for the setting “in vivo”, the “activity of the metabolite” value was “inactive” and the “clearance in the urine” value is “rapidly cleared”.
